Read-outs that look alike come from different tables or passages of the source.
Assays:
Assay type in all cases: in vivo, human
[1] = Phase IB study: composite of invasive mechanical ventilation or inotrope use
Excerpt: The cessation of positive pressure ventilation and of inotrope therapy are the two principal determinants of readiness for discharge from the intensive care unit. They were combined as a composite variable to serve as an additional effective surrogate endpoint for the duration of ICU stay.
The composite endpoint comprised the longer of the duration of positive pressure ventilatory support or of inotrope therapy. Since inotrope use was only documented until Hour 48 after surgery (end of study medication treatment), patients with inotrope use continuing until Hour 48 and with mechanical ventilation duration of ≤48 h were censored at this time point. If mechanical ventilation was continued beyond the 48-hour time point, the duration of mechanical ventilation was used in the analysis.

[2] = Phase IB study: total respiratory support; details: invasive and non-invasive
Excerpt: The analysis of total respiratory support includes any invasive and non-invasive respiratory support required during the study period. The mean total duration of respiratory support in the citrulline treatment group was less than half the duration in the placebo treatment group; the difference was statistically significant (Table 11).

[3] = Intravenous citrulline dose escalation pharmacokinetics in children undergoing congenital cardiac surgery
Procedure: The initial goal was to test the safety and pharmacokinetics of three doses of intravenous citrulline in children undergoing surgical repair of specific congenital heart defects. […] An adverse drop in mean arterial pressure was defined as a greater than a twenty percent decrease from baseline. The baseline postoperative mean arterial blood pressure was calculated as the average of mean arterial blood pressure measurements collected every 5 minutes for the 30 minutes immediately preceding the administration of the postoperative dose or infusion.
The original doses selected were 200, 400, and 600 mg/kg based on data from previous animal studies. The original study design was a 4 arm study using the 3 doses and a placebo control.
After pharmacokinetic modeling, the study design was changed to a bolus dose of 150 mg/kg given in the OR on cardiopulmonary bypass followed 4 hours later by a continuous infusion of 9 mg/kg/hour for 48 hours. Another 9 patients were enrolled. The mean plasma levels of both citrulline and arginine in study patients (+IV citrulline) compared to patients in the observational cohort (−IV citrulline) are depicted in FIGS. 11A-B.
The dose of citrulline was given in the operating room immediately after cannulation and initiation of cardiopulmonary bypass. The overall goal was to achieve a sustained citrulline level of 100 μmol/L or more up to four hours after the initial dose. The four hour time point was selected to allow for the surgical procedure to be completed and the patient to return to the Intensive Care Unit (ICU) postoperatively before further dosing.

[4] = Phase IB study: duration of hospitalization; details: postoperative until discharge
Procedure: Duration of hospitalization was calculated as the total number of days postoperative until discharge from the hospital. The average duration of hospitalization was lower in the citrulline than the placebo treatment group, however, the difference was not statistically significant (Table 17).

[5] = Perioperative oral citrulline supplementation in children undergoing congenital cardiac surgery
Procedure: Initial supplementation trials utilized oral citrulline at a dose of 1.9 g/kg before cardiopulmonary bypass, immediately postoperatively and every 12 hours, continuing for 48 hours after surgery.
40 patients with one of the 5 surgical diagnoses identified above were randomized to receive 5 doses of oral citrulline (1.9 grams/kg) vs. placebo. The first dose was administered immediately prior to surgery and the second dose immediately on arrival in the Pediatric ICU after surgery followed every 12 hours×3 doses.

[6] = Phase IB study: safety (adverse events, bleeding, laboratory, hemodynamics)
Procedure: Primary safety assessments included hemodynamic monitoring to identify clinically significant hypotension using age-specific limits. Adverse event information was collected, and postoperative bleeding was recorded.
Further safety, laboratory, and clinical assessments were performed from baseline to discharge, secondary clinical variables included: postoperative mechanical ventilation, duration of total respiratory support, hemodynamic improvement, postoperative PVT by echocardiogram, serum creatinine and liver enzymes, inotrope score, duration of chest tube usage, length of intensive care unit stay, length of hospitalization and survival.

[7] = Revised dosing protocol study: duration of respiratory support and cardiovascular parameters (Example 8)
Excerpt: The study in this example was undertaken to test a revised dosing protocol designed to achieve and maintain therapeutic citrulline levels in the face of ultrafiltration and crystalloid replacement. […] The study recruited 22 patients randomized in equal numbers of 11 patients each to placebo and citrulline arms.
Early in the course of the study, it was recognized that one of the two participating centers routinely extubated all patients in the operating room immediately following cessation of cardiopulmonary bypass. This precluded use of the duration of mechanical ventilation as an endpoint. Instead, a post-hoc analysis was applied using the duration of all forms of ventilatory support as a possible endpoint. […] In contrast, contingency table analysis, shown in FIG. 16, did achieve borderline significance. Overall, the results are considered to represent a strong trend.

## NC(=O)NCCCC(N)C(=O)O (centres unmarked) [Citrulline, 2-amino-5-(carbamoylamino)pentanoic acid]
[1]; Re-intubation time excluded
  Composite duration of invasive mechanical ventilation or inotrope use, Diff (CI) placebo vs citrulline: 17.7 (−1.0, 36.4) hours
  Composite duration of invasive mechanical ventilation or inotrope use, Mean ± SD: 14.3 ± 14.06 h
  Composite duration of invasive mechanical ventilation or inotrope use, Median: 15.0 h
  Composite duration of invasive mechanical ventilation or inotrope use, Range: 0.0 to 47.0 h
[1]; Re-intubation time included
  Composite duration of invasive mechanical ventilation or inotrope use, Diff (CI) placebo vs citrulline: 30.2 (−10.8, 71.1) hours
  Composite duration of invasive mechanical ventilation or inotrope use, Mean ± SD: 14.3 ± 14.06 h
  Composite duration of invasive mechanical ventilation or inotrope use, Median: 15.0 h
  Composite duration of invasive mechanical ventilation or inotrope use, Range: 0.0 to 47.0 h
[2]
  Total duration of respiratory support, Diff (CI) placebo vs citrulline: 50.7 (5.4, 96.0) hours
  Total duration of respiratory support, Median: 23.6 h
  Total duration of respiratory support, Range: 0.0 to 100.1 h
[2]; N = 11
  Total duration of respiratory support, Mean ± SD: 31.2 ± 28.27 h
[3]; 50 mg/kg IV, Patients 6 and 8
  peak citrulline level: approximately 220 μmol/L
[3]; 100 mg/kg IV, Patients 9 & 10
  peak citrulline level: 375 µmol/L
[3]; 150 mg/kg IV bolus
  four hour levels: 100 µmol/L
[3]; 150 mg/kg IV, Patient 13-16
  peak citrulline level: 660 µmol/L
[3]; IV doses 200, 400, and 600 mg/kg
  plasma levels achieved: very high
[3]; bolus 150 mg/kg then 4 hours later continuous infusion 9 mg/kg/hr
  sustained citrulline level suggested by pharmacokinetic modeling: approximately 100 μmol/L
[3]; human, plasma, iv, IV bolus doses in children on CPB
  half-life: ~1.42 h
[3]; human, plasma, 50 mg/kg IV, Patients 6 and 8, read-out: 4 hour trough level
  concentration at 4 hour: 40 µM
[3]; human, plasma, 100 mg/kg IV, Patients 9 & 10, read-out: 4 hour trough
  concentration at 4 hour: 50 µM
[3]; human, plasma, 150 mg/kg IV, Patient 13-16, read-out: 4 hour trough
  concentration at 4 hour: 80 µM
[4]
  Duration of hospitalization, Diff (CI) placebo vs citrulline: 3.7 (−2.2, 9.7) days
  Duration of hospitalization, Median: 5.0 days
  Duration of hospitalization, Range: 3.0 to 7.0 days
[4]; N = 11
  Duration of hospitalization, Mean ± SD: 4.6 ± 1.21 days
[5]; 5 doses of oral citrulline 1.9 grams/kg, placebo 26
  Plasma citrulline levels: 36 µmol/L
[5]; oral 1.9 g/kg before CPB, postoperatively and every 12 hours for 48 hours
  tolerability: well tolerated with no evidence of significant adverse events
[6]; citrulline group
  AE hypotension: 27%
  AE tachypnea: 27%
[6]; citrulline group, placebo 36%
  AE hypertension: 27%
[6]; citrulline group, placebo 45%
  AE pleural effusion: 36%
[6]; citrulline group, placebo 73%
  patients with at least one treatment-emergent AE: 100%
[6]; citrulline vs placebo
  Heart rate: consistently higher in the placebo group than the citrulline group
[6]; in vivo
  AE leading to death, SAE, AE leading to discontinuation: No AE leading to death, no SAE, and no AE leading to discontinuation
  impact on oxygen saturation or systemic arterial blood pressure: no noteworthy impact
  post-operative bleeding (length and volume of chest tube drainage) versus placebo: no difference in post-operative bleeding
[6]; stable in the placebo group, p=0.0111
  BUN: increased from baseline through to Day 2
[7]; FIG. 18A
  systolic and diastolic blood pressure versus placebo: No significant change in systolic and diastolic blood pressure
[7]; FIG. 18B
  mean arterial pressure versus placebo: No significant change in the mean arterial pressure
[7]; contingency table, placebo 3
  patients with Duration of Respiratory Support ≤50 hours: 7
[7]; contingency table, placebo 8
  patients with Duration of Respiratory Support >50 hours: 2
[7]; particularly from 15 to 18 hours onward following ICU admission (FIG. 17)
  inotrope scores versus placebo: markedly better inotrope scores
[7]; revised dosing protocol
  adverse effects upon hemodynamic parameters: No adverse effects upon hemodynamic parameters were observed
